SMILES strings stand for the structures. A value given as a limit tells only on which side of the number the result lay.

For one assay, the target named is T1, GCS (Canis lupus familiaris, UniProt A0A8I3MXG6).
T1 sequence (A0A8I3MXG6 1-394): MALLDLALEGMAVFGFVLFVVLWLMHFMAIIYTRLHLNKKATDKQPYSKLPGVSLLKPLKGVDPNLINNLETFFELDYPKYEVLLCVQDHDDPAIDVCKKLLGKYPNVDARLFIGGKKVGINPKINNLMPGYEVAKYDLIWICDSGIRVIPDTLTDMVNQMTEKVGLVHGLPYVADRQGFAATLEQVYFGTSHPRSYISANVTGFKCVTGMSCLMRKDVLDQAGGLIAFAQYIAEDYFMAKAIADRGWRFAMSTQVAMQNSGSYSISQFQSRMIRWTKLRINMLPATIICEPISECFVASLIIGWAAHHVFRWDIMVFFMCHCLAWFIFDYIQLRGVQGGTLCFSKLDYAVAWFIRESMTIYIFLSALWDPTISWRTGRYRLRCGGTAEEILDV
Kind of assay: Assay 1: GCS Enzymatic Assay (MDCK cell lysate, C6-NBD-Ceramide, LC/MS). The class given is biochemical, canine. As to conditions: Table 2; data marked by *. In short, it runs like this: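 LC/MS/MS measurement of glucosylceramide and NBD-ceramide after a 1 h, 37 °C reaction with 100 μM UDP-glucose and 10 μM C6-NBD-ceramide gave IC50s or percent inhibition.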
For `O=C(CCc1ccc2ccccc2c1)C(=O)N[C@H](CN1CCC1)[C@H](O)c1cc(F)c2c(c1)OCCO2` [Compound 145, N-((1R,2R)-3-(azetidin-1-yl)-1-(8-fluoro-2,3-dihydrobenzo[b][1,4]dioxin-6-yl)-1-hydroxypropan-2-yl)-4-(naphthalen-2-yl)-2-oxobutanamide], the “% inhibition generated from Assay 1” value was “A* (the compound had a % inhibition of a percent inhibition of greater than or equal to about 50%)”.
Same read-out and setting: as for `O=C(CCc1ccc2ccccc2c1)C(=O)N[C@H](CN1CCCC1)[C@H](O)c1ccc(OC2CC2)c(Cl)c1` [Compound 147, N-((1R,2R)-1-(3-chloro-4-cyclopropoxyphenyl)-1-hydroxy-3-(pyrrolidin-1-yl)propan-2-yl)-4-(naphthalen-2-yl)-2-oxobutanamide], the entry is “A* (the compound had a % inhibition of a percent inhibition of greater than or equal to about 50%)”.
Regarding `O=C(CCc1ccc2cc(F)ccc2c1)C(=O)N[C@H](CN1CCC1)[C@H](O)c1ccc(OC2CC2)c(Cl)c1` [Compound 154, N-((1R,2R)-3-(azetidin-1-yl)-1-(3-chloro-4-cyclopropoxyphenyl)-1-hydroxypropan-2-yl)-4-(6-fluoronaphthalen-2-yl)-2-oxobutanamide], the “% inhibition generated from Assay 1” value is given as “B* (the compound had a % inhibition of greater than or equal to about 3% but less than about 50%)”.
On to `O=C(N[C@H](CN1CCC1)[C@H](O)c1ccc(OC2CC2)c(Cl)c1)C(F)(F)c1ccc(-c2ccc(F)cc2)cc1` [Compound 162, N-((1R,2R)-3-(azetidin-1-yl)-1-(3-chloro-4-cyclopropoxyphenyl)-1-hydroxypropan-2-yl)-2,2-difluoro-2-(4′-fluoro-[1,1′-biphenyl]-4-yl)acetamide], for which the “% inhibition generated from Assay 1” value is recorded as “A* (the compound had a % inhibition of a percent inhibition of greater than or equal to about 50%)”.

Still in this assay, the particulars now being: Table 2; data without asterisk; read-out: IC50 (nM) generated from Assay 1.
For the molecule `O=C(N[C@H](CN1CCCC1)[C@H](O)c1cc(F)c2c(c1)OCCO2)C(F)(F)c1ccc(-c2ccc(F)cc2)cc1` [Compound 140, 2,2-difluoro-N-((1R,2R)-1-(8-fluoro-2,3-dihydrobenzo[b][1,4]dioxin-6-yl)-1-hydroxy-3-(pyrrolidin-1-yl)propan-2-yl)-2-(4′-fluoro-[1,1′-biphenyl]-4-yl)acetamide], the IC50 was less than 50 nM.
With `O=C(N[C@H](CN1CCC1)[C@H](O)c1cc(F)c2c(c1)OCCO2)/C(CCc1ccc2ccccc2c1)=N/O` [Compound 141, (E)-N-((1R,2R)-3-(azetidin-1-yl)-1-(8-fluoro-2,3-dihydrobenzo[b][1,4]dioxin-6-yl)-1-hydroxypropan-2-yl)-2-(hydroxyimino)-4-(naphthalen-2-yl)butanamide], the IC50 was less than 50 nM.
`O=C(N[C@H](CN1CCCC1)[C@H](O)c1ccc(OC2CC2)c(Cl)c1)/C(CCc1ccc2ccccc2c1)=N/O` [Compound 142, (E)-N-((1R,2R)-1-(3-chloro-4-cyclopropoxyphenyl)-1-hydroxy-3-(pyrrolidin-1-yl)propan-2-yl)-2-(hydroxyimino)-4-(naphthalen-2-yl)butanamide]: the IC50 was less than 50 nM.
Turning to `O=C(CCc1ccc2ccccc2c1)C(=O)N[C@H](CN1CCCC1)[C@H](O)c1cc(F)c2c(c1)OCCO2` [Compound 143, N-((1R,2R)-1-(8-fluoro-2,3-dihydrobenzo[b][1,4]dioxin-6-yl)-1-hydroxy-3-(pyrrolidin-1-yl)propan-2-yl)-4-(naphthalen-2-yl)-2-oxobutanamide], the IC50 was less than 50 nM.
Regarding `O=C(N[C@H](CN1CCC1)[C@H](O)c1ccc2c(c1)OCCO2)C(F)(F)CCc1ccc2ccccc2c1` [Compound 144, N-((1R,2R)-3-(azetidin-1-yl)-1-(2,3-dihydrobenzo[b][1,4]dioxin-6-yl)-1-hydroxypropan-2-yl)-2,2-difluoro-4-(naphthalen-2-yl)butanamide], the IC50 is less than 50 nM.
As to `O=C(N[C@H](CN1CCCC1)[C@H](O)c1ccc(OC2CCOCC2)c(Cl)c1)C(F)(F)c1ccc2cc(Cl)ccc2c1` [Compound 146, N-((1R,2R)-1-(3-chloro-4-((tetrahydro-2H-pyran-4-yl)oxy)phenyl)-1-hydroxy-3-(pyrrolidin-1-yl)propan-2-yl)-2-(6-chloronaphthalen-2-yl)-2,2-difluoroacetamide], the half-maximal inhibitory concentration (IC50) was less than 50 nM.
`O=C(N[C@H](CN1CCCC1)[C@H](O)c1cc(F)c2c(c1)OCCO2)/C(CCc1ccc2ccccc2c1)=N/O` [Compound 148, (E)-N-((1R,2R)-1-(8-fluoro-2,3-dihydrobenzo[b][1,4]dioxin-6-yl)-1-hydroxy-3-(pyrrolidin-1-yl)propan-2-yl)-2-(hydroxyimino)-4-(naphthalen-2-yl)butanamide]: the half-inhibitory concentration (IC50) is less than 50 nM.
As to `O=C(N[C@H](CN1CCCC1)[C@H](O)c1ccc(OC2CC2)c(Cl)c1)C(=O)c1ccc(-c2ccc(F)cc2)cc1` [Compound 149, N-((1R,2R)-1-(3-chloro-4-cyclopropoxyphenyl)-1-hydroxy-3-(pyrrolidin-1-yl)propan-2-yl)-2-(4′-fluoro-[1,1′-biphenyl]-4-yl)-2-oxoacetamide], the concentration for half-maximal inhibition (IC50) is less than 50 nM.
As for `O=C(N[C@H](CN1CCC1)[C@H](O)c1cc(F)c2c(c1)OCCO2)C(=O)c1ccc(-c2ccc(F)cc2)cc1` [Compound 150, N-((1R,2R)-3-(azetidin-1-yl)-1-(8-fluoro-2,3-dihydrobenzo[b][1,4]dioxin-6-yl)-1-hydroxypropan-2-yl)-2-(4′-fluoro-[1,1′-biphenyl]-4-yl)-2-oxoacetamide], the half-maximal inhibitory concentration (IC50) was less than 50 nM.
As for `O=C(N[C@H](CN1CCCC1)[C@H](O)c1cc(F)c2c(c1)OCCO2)C(=O)c1ccc2cc(Cl)ccc2c1` [Compound 151, 2-(6-chloronaphthalen-2-yl)-N-((1R,2R)-1-(8-fluoro-2,3-dihydrobenzo[b][1,4]dioxin-6-yl)-1-hydroxy-3-(pyrrolidin-1-yl)propan-2-yl)-2-oxoacetamide], the IC50 is less than 50 nM.
`O=C(N[C@H](CN1CCCC1)[C@H](O)c1ccc(OC2CCOCC2)c(Cl)c1)C(=O)c1ccc(-c2ccc(F)cc2)cc1` [Compound 152, N-((1R,2R)-1-(3-chloro-4-((tetrahydro-2H-pyran-4-yl)oxy)phenyl)-1-hydroxy-3-(pyrrolidin-1-yl)propan-2-yl)-2-(4′-fluoro-[1,1′-biphenyl]-4-yl)-2-oxoacetamide]: the IC50 is less than 50 nM.
As for `O=C(N[C@H](CN1CCCC1)[C@H](O)c1ccc(OC2CC2)c(Cl)c1)/C(=N/O)c1ccc(-c2ccc(F)cc2)cc1` [Compound 153, (E)-N-((1R,2R)-1-(3-chloro-4-cyclopropoxyphenyl)-1-hydroxy-3-(pyrrolidin-1-yl)propan-2-yl)-2-(4′-fluoro-[1,1′-biphenyl]-4-yl)-2-(hydroxyimino)acetamide], the half-maximal inhibitory concentration (IC50) is less than 50 nM.
`O=C(N[C@H](CN1CCC1)[C@H](O)c1cc(F)c2c(c1)OCCO2)/C(=N/O)c1ccc(-c2ccc(F)cc2)cc1` [Compound 155, (E)-N-((1R,2R)-3-(azetidin-1-yl)-1-(8-fluoro-2,3-dihydrobenzo[b][1,4]dioxin-6-yl)-1-hydroxypropan-2-yl)-2-(4′-fluoro-[1,1′-biphenyl]-4-yl)-2-(hydroxyimino)acetamide]: the IC50 was less than 50 nM.
On the same count and under the same terms, the same measure for `O=C(N[C@H](CN1CCCC1)[C@H](O)c1cc(F)c2c(c1)OCCO2)C(=O)c1ccc2ccc(Cl)cc2c1` [Compound 156, 2-(7-chloronaphthalen-2-yl)-N-((1R,2R)-1-(8-fluoro-2,3-dihydrobenzo[b][1,4]dioxin-6-yl)-1-hydroxy-3-(pyrrolidin-1-yl)propan-2-yl)-2-oxoacetamide]: less than 50 nM; for `O=C(N[C@H](CN1CCC1)[C@H](O)c1cc(F)c2c(c1)OCCO2)C(F)(F)c1ccc(-c2ccc(F)cc2)cc1` [Compound 157, N-((1R,2R)-3-(azetidin-1-yl)-1-(8-fluoro-2,3-dihydrobenzo[b][1,4]dioxin-6-yl)-1-hydroxypropan-2-yl)-2,2-difluoro-2-(4′-fluoro-[1,1′-biphenyl]-4-yl)acetamide]: less than 50 nM; for `O=C(N[C@H](CN1CCCC1)[C@H](O)c1cc(F)c2c(c1)OCCO2)/C(=N/O)c1ccc2cc(Cl)ccc2c1` [Compound 158, (E)-2-(6-chloronaphthalen-2-yl)-N-((1R,2R)-1-(8-fluoro-2,3-dihydrobenzo[b][1,4]dioxin-6-yl)-1-hydroxy-3-(pyrrolidin-1-yl)propan-2-yl)-2-(hydroxyimino)acetamide]: less than 50 nM.
The same measure, in the same setting: the same measure for `O=C(N[C@H](CN1CCCC1)[C@H](O)c1ccc(OC2CC2)c(Cl)c1)C(F)(F)c1ccc(-c2ccc(F)cc2)cc1` [Compound 159, N-((1R,2R)-1-(3-chloro-4-cyclopropoxyphenyl)-1-hydroxy-3-(pyrrolidin-1-yl)propan-2-yl)-2,2-difluoro-2-(4′-fluoro-[1,1′-biphenyl]-4-yl)acetamide]: less than 50 nM; for `O=C(N[C@H](CN1CCCC1)[C@H](O)c1ccc2c(c1)OCCO2)C(F)(F)c1ccc(-c2ccc(F)cc2)cc1` [Compound 160, N-((1R,2R)-1-(2,3-dihydrobenzo[b][1,4]dioxin-6-yl)-1-hydroxy-3-(pyrrolidin-1-yl)propan-2-yl)-2,2-difluoro-2-(4′-fluoro-[1,1′-biphenyl]-4-yl)acetamide]: less than 50 nM; for `O=C(N[C@H](CN1CCC1)[C@H](O)c1ccc2c(c1)OCCO2)C(F)(F)c1ccc(-c2ccc(F)cc2)cc1` [Compound 161, N-((1R,2R)-3-(azetidin-1-yl)-1-(2,3-dihydrobenzo[b][1,4]dioxin-6-yl)-1-hydroxypropan-2-yl)-2,2-difluoro-2-(4′-fluoro-[1,1′-biphenyl]-4-yl)acetamide]: less than 50 nM.

The term IC50 denotes the concentration at which inhibition is half-maximal.

The record behind these values is patent US10227323B2, “Glucosylceramide synthase inhibitors for the treatment of diseases” (BIOMARIN PHARMACEUTICAL INC., priority 2013, dated 2019).
